Results from PubChem BioAssay AID248 (DTP/NCI, 2004).
Several values for one entry are separate records, joined by “and”; a condition that tells them apart may be missing. Equal values may be shown once. Toxic doses and inconclusive results are not listed. No stated cut-off is given here; in the data, active means T/C of 150% or more; inactive means T/C below 125%.

Tested on: L1210 leukemia ip in BDF1 mice, survival T/C
Test: NCI In Vivo Anticancer Drug Screen. Data for tumor model L1210 Leukemia (intraperitoneal) in B6D2F1 (BDF1) mice
Conditions: endpoint: mean survival time, higher = longer survival
How it was run: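 Mice bearing the transplanted tumor received compound or vehicle. Survival of the treated group was divided by that of the vehicle-treated control group to give the ratio.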

[1] = dose: 100.0 mg/kg/injection, schedule: Q01DX009 (ip), vehicle: saline sonified
[2] = dose: 200.0 mg/kg/injection, schedule: Q01DX009 (ip), vehicle: saline sonified
[3] = dose: 400.0 mg/kg/injection, schedule: Q01DX009 (ip), vehicle: saline sonified
[4] = dose: 100.0 mg/kg/injection, schedule: Q01DX001 (ip), vehicle: saline
[5] = dose: 200.0 mg/kg/injection, schedule: Q01DX001 (ip), vehicle: saline
[6] = dose: 400.0 mg/kg/injection, schedule: Q01DX001 (ip), vehicle: saline
[7] = dose: 100.0 mg/kg/injection, schedule: Q01DX001 (ip), vehicle: carboxymethylcellulose (CMC)
[8] = dose: 200.0 mg/kg/injection, schedule: Q01DX001 (ip), vehicle: carboxymethylcellulose (CMC)
[9] = dose: 400.0 mg/kg/injection, schedule: Q01DX001 (ip), vehicle: carboxymethylcellulose (CMC)
[10] = dose: 100.0 mg/kg/injection, schedule: Q01DX009 (ip), vehicle: Klucel (hydroxypropylcellulose) (HPC)
[11] = dose: 200.0 mg/kg/injection, schedule: Q01DX009 (ip), vehicle: Klucel (hydroxypropylcellulose) (HPC)
[12] = dose: 400.0 mg/kg/injection, schedule: Q01DX009 (ip), vehicle: Klucel (hydroxypropylcellulose) (HPC)
[13] = dose: 100.0 mg/kg/injection, schedule: Q04DX003 (ip), vehicle: saline
[14] = dose: 200.0 mg/kg/injection, schedule: Q04DX003 (ip), vehicle: saline
[15] = dose: 400.0 mg/kg/injection, schedule: Q04DX003 (ip), vehicle: saline
[16] = dose: 100.0 mg/kg/injection, schedule: Q01DX009 (ip), vehicle: saline
[17] = dose: 200.0 mg/kg/injection, schedule: Q01DX009 (ip), vehicle: saline

Measured: T/C

CC(=O)C(CCC#N)C(C)=O.CC(=O)C(CCC#N)C(C)=O.[Cu]
inactive: dose: 6.25 mg/kg/injection, schedule: Q01DX009 (ip), vehicle: Klucel (hydroxypropylcellulose) (HPC) 95 % of control | dose: 12.5 mg/kg/injection, schedule: Q01DX009 (ip), vehicle: Klucel (hydroxypropylcellulose) (HPC) 98 % of control | dose: 12.5 mg/kg/injection, schedule: Q04DX003 (ip), vehicle: Klucel (hydroxypropylcellulose) (HPC) 90 % of control | dose: 25.0 mg/kg/injection, schedule: Q01DX009 (ip), vehicle: Klucel (hydroxypropylcellulose) (HPC) 87 % of control | dose: 25.0 mg/kg/injection, schedule: Q04DX003 (ip), vehicle: Klucel (hydroxypropylcellulose) (HPC) 91 % of control

Nc1ccc(CCc2ccc(Cl)cc2S(=O)(=O)F)c(Cl)c1
inactive: [1] 97 % of control | dose: 100.0 mg/kg/injection, schedule: Q04DX003 (ip), vehicle: saline sonified 100 % of control | [2] 92 % of control | dose: 200.0 mg/kg/injection, schedule: Q04DX003 (ip), vehicle: saline sonified 100 % of control | [3] 98 % of control | dose: 400.0 mg/kg/injection, schedule: Q04DX003 (ip), vehicle: saline sonified 96 % of control

CCCCCCSc1n[nH]c(=O)[nH]c1=O
inactive: [4] 97 % of control | [5] 95 % of control | [6] 108 % of control

CC1([N+](=O)[O-])COP(=O)(NCc2ccccc2)OC1 (stereo not given)
inactive: dose: 50.0 mg/kg/injection, schedule: Q01DX001 (ip), vehicle: carboxymethylcellulose (CMC) 97 % of control | [7] 107 % of control | [8] 109 % of control | [9] 97 % of control

CC(=O)c1ccc(OC(=O)Nc2ccc(C)cc2)cc1
inactive: [10] 109 % of control | [11] 105 % of control | [12] 88 % of control

O=C(O)c1[nH]c2c(=O)[nH]c(=O)[nH]c2c1Br
inactive: [4] 102 % of control | [5] 100 % of control | [6] 100 % of control

CCCCCCCCCCCCCCCCCCNC(=O)N1CCCCC1C (stereo not given)
inactive: [10] 89 % of control | [11] 96 % of control | [12] 100 % of control

Cc1nsc(N(NC(=O)c2ccccc2)C(=O)c2ccccc2)n1
inactive: dose: 75.0 mg/kg/injection, schedule: Q01DX001 (ip), vehicle: carboxymethylcellulose (CMC) 95 % of control

Cc1cc(C)c([I+]c2c(C)cc(C)cc2C)c(C)c1
inactive: dose: 0.12 mg/kg/injection, schedule: Q01DX009 (ip), vehicle: saline 102 % of control | dose: 0.25 mg/kg/injection, schedule: Q01DX009 (ip), vehicle: saline 111 % of control | dose: 0.5 mg/kg/injection, schedule: Q01DX001 (ip), vehicle: saline 90 % of control | dose: 0.5 mg/kg/injection, schedule: Q01DX009 (ip), vehicle: saline 122 % of control | dose: 0.5 mg/kg/injection, schedule: Q01DX015 (ip), vehicle: saline 100 % of control | dose: 0.5 mg/kg/injection, schedule: Q04DX003 (ip), vehicle: acetone 111 % of control | dose: 1.0 mg/kg/injection, schedule: Q01DX001 (ip), vehicle: saline 101 % of control | dose: 1.0 mg/kg/injection, schedule: Q01DX015 (ip), vehicle: saline 96 % of control | dose: 2.0 mg/kg/injection, schedule: Q01DX001 (ip), vehicle: saline 92 % of control | dose: 2.0 mg/kg/injection, schedule: Q01DX015 (ip), vehicle: saline 102 % of control | dose: 4.0 mg/kg/injection, schedule: Q01DX015 (ip), vehicle: saline 103 % of control

CCOC(=O)CC/C(C)=N\N(C)C
inactive: [13] 93 % of control | [14] 97 % of control | [15] 93 % of control

CCCCCCCCCCCC(=O)N/N=C(\c1ccccc1)c1ccc(Cl)cc1
inactive: dose: 100.0 mg/kg/injection, schedule: Q04DX002 (ip), vehicle: Klucel (hydroxypropylcellulose) (HPC) 103 % of control | dose: 200.0 mg/kg/injection, schedule: Q04DX002 (ip), vehicle: Klucel (hydroxypropylcellulose) (HPC) 103 % of control | dose: 400.0 mg/kg/injection, schedule: Q04DX002 (ip), vehicle: Klucel (hydroxypropylcellulose) (HPC) 122 % of control

CC1CN(C(C)C)C1
inactive: dose: 100.0 mg/kg/injection, schedule: Q01DX001 (ip), vehicle: acetone 101 % of control | dose: 200.0 mg/kg/injection, schedule: Q01DX001 (ip), vehicle: acetone 97 % of control

COc1ccc(CCN2C(=O)C=CC2=O)cc1OC
inactive: dose: 5.0 mg/kg/injection, schedule: Q04DX003 (ip), vehicle: saline 97 % of control | dose: 10.0 mg/kg/injection, schedule: Q04DX003 (ip), vehicle: saline 96 % of control | dose: 20.0 mg/kg/injection, schedule: Q04DX003 (ip), vehicle: saline 100 % of control

CCOC(=O)CNCc1cccnc1
inactive: [16] 97 % of control | [13] 95 % of control | [17] 94 % of control | [14] 87 % of control | dose: 400.0 mg/kg/injection, schedule: Q01DX009 (ip), vehicle: saline 95 % of control | [15] 102 % of control

COc1ccccc1CNc1ncnc2nc[nH]c12
inactive: dose: 100.0 mg/kg/injection, schedule: Q04DX003 (ip), vehicle: acetone 97 % of control | dose: 200.0 mg/kg/injection, schedule: Q04DX003 (ip), vehicle: acetone 94 % of control | dose: 400.0 mg/kg/injection, schedule: Q04DX003 (ip), vehicle: acetone 107 % of control

CCOC(=O)CCCNc1ccccc1C(=O)OC
inactive: [7] 110 % of control | [8] 107 % of control | [9] 107 % of control

COc1ccccc1NC(=O)CC(=O)c1ccc([N+](=O)[O-])cc1
inactive: [1] 103 % of control | dose: 100.0 mg/kg/injection, schedule: Q04DX003 (ip), vehicle: Klucel (hydroxypropylcellulose) (HPC) 101 % of control | [2] 100 % of control | dose: 200.0 mg/kg/injection, schedule: Q04DX003 (ip), vehicle: Klucel (hydroxypropylcellulose) (HPC) 105 % of control | [3] 103 % of control | dose: 400.0 mg/kg/injection, schedule: Q04DX003 (ip), vehicle: Klucel (hydroxypropylcellulose) (HPC) 98 % of control

CC(NC(=O)OCc1ccccc1)C(=O)NC(CCC(=O)OCc1ccccc1)C(=O)OCc1ccccc1 (stereo not given)
inactive: dose: 100.0 mg/kg/injection, schedule: Q04DX003 (ip), vehicle: saline with Tween-80 93 % of control | dose: 200.0 mg/kg/injection, schedule: Q04DX003 (ip), vehicle: saline with Tween-80 92 % of control | dose: 400.0 mg/kg/injection, schedule: Q04DX003 (ip), vehicle: saline with Tween-80 92 % of control

OCC(F)(F)C(F)F
inactive: dose: 50.0 mg/kg/injection, schedule: Q01DX001 (ip), vehicle: saline 91 % of control | [4] 94 % of control | [5] 91 % of control | [6] 100 % of control

C1CN2CCN1CC2.[Cl][Ni+][Cl]
inactive: dose: 1.56 mg/kg/injection, schedule: Q01DX009 (ip), vehicle: saline 101 % of control | dose: 2.0 mg/kg/injection, schedule: Q04DX003 (ip), vehicle: saline 109 % of control | dose: 3.12 mg/kg/injection, schedule: Q01DX009 (ip), vehicle: saline 101 % of control | dose: 4.0 mg/kg/injection, schedule: Q04DX003 (ip), vehicle: saline 106 % of control | dose: 6.25 mg/kg/injection, schedule: Q01DX009 (ip), vehicle: saline 94 % of control | dose: 8.0 mg/kg/injection, schedule: Q04DX003 (ip), vehicle: saline 97 % of control | dose: 12.5 mg/kg/injection, schedule: Q01DX009 (ip), vehicle: saline 92 % of control | dose: 16.0 mg/kg/injection, schedule: Q04DX003 (ip), vehicle: saline 105 % of control

CCCCO.[Sn]
inactive: dose: 50.0 mg/kg/injection, schedule: Q01DX009 (ip), vehicle: saline 99 % of control and 109 % of control | [16] 96 % of control and 109 % of control | [17] 99 % of control and 106 % of control

O=[N+]([O-])c1ccccc1S(=O)(=O)Nc1ccccc1F
inactive: [10] 105 % of control | [11] 100 % of control | [12] 101 % of control

COC1C(O)C(C)OC(OC2CC3CCC4C(CCC5(C)C(C6=CC(=O)OC6)CCC45O)C3(C)C(OC(C)=O)C2)C1O (stereo not given) (tested in a mixture with another compound)
inactive: dose: 25.0 mg/kg/injection, schedule: Q01DX009 (sc), vehicle: steriod suspending solution 101 % of control
